“And” between values parts separate entries of the source, which are not always exact repeats. Equal values may be shown once. Read-outs that look alike come from different tables or passages of the source.
Key:
[1] = Lipophilicity coefficient RM0 by reversed phase thin layer chromatography; assay type: physicochemical; settings: RP-18 TLC, methanol / 100 mM phosphate buffer pH = 7.4
Experimental: Confirmation of the identity and purity of the obtained compounds consisted in the registration and interpretation of ^1H NMR and ^13C NMR spectra (the spectra were recorded using an ECZR 500 MHz (JEOL) series FT-NMR spectrophotometer), as well as the registration and interpretation of LC-MS spectra (the spectra were recorded using Acquita UPLC system (Waters) coupled with a Waters TQD mass spectrometer). The melting point was measured using the open capillary method in the IA9300 device (Electrothermal). The lipophilicity coefficient RM0 was determined by reversed phase thin layer chromatography. In the study, aluminum plates 20x20 cm covered with modified silica gel RP-18 F254 (Merck) were used as the solid phase. The mobile phase consisted of solutions of methanol and 100 mM phosphate buffer (pH = 7.4), characterized by a variable methanol content ranging from 95 to 65% (v/v). The tested compounds were dissolved in methanol to obtain solutions with a concentration of 1 mg/mL. Then, 5 µL of the solutions prepared in this way were transferred to the starting line on aluminum plates, which were then placed in chromatographic chambers previously saturated with mobile phase vapors for at least 1 hour. All activities, including the development of chromatograms, were carried out at room temperature. After developing the chromatograms to approximately 1-2 cm from the end of the plate, the plates were dried and then the distance traveled by the tested compounds was visualized under UV light (λ = 254 nm). The experiment was performed in duplicate for the specified conditions. For all samples, Rf was calculated according to the formula Rf = a/b, where a - the distance traveled by the tested compound, b - the distance traveled by the mobile phase. Then, the RM parameter was calculated for all samples according to the formula RM = log(1/Rf - 1), obtaining a linear relationship between the RM values and the methanol concentration in the mobile phase. The logP coefficient was also calculated using the following computer programs: ACD/ChemSketch 2020.1.2 and ChemDraw 20.0.0.41. Table 2. The physicochemical data of the compounds are presented below

[2] = system: B16-F10 murine melanoma cell line; test: Cytotoxicity in B16-F10 cells (MTT); assay type: cell-based; settings: 48 h
Experimental: In order to determine safe doses of compounds for testing the inhibition of melanogenesis in a murine melanoma cell line, cytotoxicity tests were performed. Cytotoxicity was determined by the colorimetric method using MTT ([3-(4,5-dimethyl-2-thiazolyl)-2,5-diphenyl-2H-tetrazolium bromide, Sigma M5655). For this purpose, cells were transferred to 96-well plates in an amount of 5000/well. After 24 h of culture in an incubator in F 10-Ham medium with 1% FBS, the tested compounds at various concentrations were added to the wells together with fresh medium. DMSO was added to the medium in a negative control. The MTT test was performed after further culture for 48 h. Then the medium was removed and the formed formazan crystals were dissolved in DMSO. The absorbance was measured at 570 nm in a plate reader and the result was compared to the control (DMSO), which was 100%. The percentage of viability was calculated using the formula: [AT/AC^∗100], where AT is the absorbance of the test sample, AC - absorbance of the control sample. Table 3. Results of inhibiting the activity of monophenolase […] tyrosinase and cytotoxicity testing in B16F10 cells for the described compounds.

tyrosinase from mushroom = test: Inhibition of commercial mushroom tyrosinase (L-DOPA or L-tyrosine substrate); assay type: biochemical
Experimental: The following substrates were used for the enzymatic reaction: L-tyrosine and L-3,4-dihyroxyphenylalanine (L-DOPA). Both substrates were used in independent experiments. According to the literature, the use of L-DOPA enables the assessment of tyrosinase diphenolase activity, and L-tyrosine - the tyrosinase monophenolase activity. The determinations were performed in 96-well plates, in each well there was placed: 170 µL or 127.5 µL of 50 mM phosphate buffer (pH = 6.8) with tyrosinase (1U/well or 3U/well) and 10 µL of a solution of the tested compound in DMSO (the final concentration in the well was 500 µM, 250 µM or 125 µM). The negative control used 10 µL of pure solvent (DMSO). To initiate the reaction, an appropriate substrate was added: L-tyrosine (62.5 µL of solution in phosphate buffer) or L-DOPA (20 µL of solution in phosphate buffer). After a 25-minute incubation, the absorbance was measured at 475 nm using a microplate reader. The percentage of inhibition of tyrosinase activity was calculated using the formula: [(AC -AT)/AC] × 100, where AC - is the absorbance of the negative control, AT - is the absorbance of the sample containing the tested compound.

S. typhimurium TA98 = test: Ames microplate test, TA98; assay type: cell-based, Salmonella typhimurium; settings: positive control (PC), 0.5 µg/mL, +S9;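 note: reference level is the mean solvent-control yellow wells plus SD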
Experimental: (§1) Bacteria were grown overnight in growth medium.
(§2) Table 9. Ames microplate test results.

S. typhimurium TA100 = test: Ames microplate test, TA100; assay type: cell-based, Salmonella typhimurium; settings: positive control (PC), 125 µg/mL, +S9;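 note: reference level is the mean solvent-control yellow wells plus SD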
Experimental: as §1, §2

[3] = L-DOPA, read-out: Tyrosinase inhibition with L-DOPA, IC50
[4] = L-tyrosine, read-out: Tyrosinase inhibition with L-tyrosine, IC50

| SMILES | RM0 [1] | Cytotoxicity study in B16F10 cells % viability ([2]; 150 µM) [%] | Cytotoxicity study in B16F10 cells % viability ([2]; 200 µM) [%] | Cytotoxicity study in B16F10 cells % viability ([2]; 250 µM) [%] | Tyrosinase inhibition with L-DOPA [%] (tyrosinase from mushroom; L-DOPA) | Tyrosinase inhibition with L-tyrosine [%] (tyrosinase from mushroom; L-tyrosine) | Cytotoxicity study in B16F10 cells % viability ([2]; 12.5 µM) [%] | Cytotoxicity study in B16F10 cells % viability ([2]; 25 µM) [%] | Cytotoxicity study in B16F10 cells % viability ([2]; 50 µM) [%] | IC50 (tyrosinase from mushroom; [3]) [µM] | IC50 (tyrosinase from mushroom; [4]) [µM] | Increase in the number of yellow wells compared to the reference level (S. typhimurium TA98) | Increase in the number of yellow wells compared to the reference level (S. typhimurium TA100) | Tyrosinase inhibition with L-DOPA [%] (tyrosinase from mushroom; L-DOPA, concentration not given) |
| --- | --- | --- | --- | --- | --- | --- | --- | --- | --- | --- | --- | --- | --- | --- |
| CCC(O)CNC(=O)/C=C/c1ccc(Cl)cc1Cl (centres unmarked) [H-320/21, (2E)-3-(2,4-dichlorophenyl)-N-(2-hydroxybutyl)prop-2-enamide] | 3.08 | 101.7 | 90.8 | 33.9 | 5.8±3.04% (500 µM) | 24.43±8.05% (500 µM) | – | – | – | – | – | – | – | – |
| O=C(/C=C/c1ccc(Cl)cc1)NCCCCO [H-331/21, (2E)-3-(4-chlorophenyl)-N-(4-hydroxybutyl)prop-2-enamide] | 2.14 | 32.7 | 51.9 | 52.7 | 64.31±0.21% (500 µM) | 82.50±0.87% (500 µM) | 49.0 | 47.8 | 54.2 | 153 | 103 | – | – | – |
| O=C(/C=C/c1ccccc1)NCCCO [KM-634, (2E)-N-(3-hydroxypropyl)-3-phenylprop-2-enamide] | 1.60 | 76.1 | 70.5 | 63.3 | 34.23±2.32% (500 µM) | 27.41±2.24% (500 µM) | – | – | – | – | – | – | – | – |
| CCC(CO)NC(=O)/C=C/c1ccc(Cl)cc1Cl (centres unmarked) [H-285/20, (2E)-3-(2,4-dichlorophenyl)-N-(1-hydroxybutan-2-yl)prop-2-enamide] | 3.08 | 84.2 | 74.8 | 24.6 | 0.21±5.64% (500 µM) | 14.56±1.63% (500 µM) | – | – | – | – | – | – | – | – |
| Nc1ccc2cc3ccccc3cc2c1 [Compound 2-AA, 2-aminoanthracene, reference compound] | – | – | – | – | – | – | – | – | – | – | – | 24.00 and 15.03 | 4.00 | – |
| O=C(/C=C/c1ccccc1)NCCO [H-429/21, (2E)-N-(2-hydroxyethyl)-3-phenylprop-2-enamide] | 1.27 | 86.4 | 79.8 | 80.9 | 30.54±1.20% (500 µM) | 21.00±8.83% (500 µM) | – | – | – | – | – | – | – | – |
| CCC(CO)NC(=O)/C=C/c1ccc(Cl)cc1 (centres unmarked) [Compound A-01, (2E)-3-(4-chlorophenyl)-N-(1-hydroxybutan-2-yl)prop-2-enamide] | 2.43 | 73.6 | 93.2 | 85.4 | 43.99±2.60% (500 µM) | 61.80±0.40% (500 µM) | – | – | – | 734 | 284 | – | – | – |
| Cc1ccc(/C=C/C(=O)NC(C)CO)cc1 (centres unmarked) [Compound A-69, (2E)-N-(1-hydroxypropan-2-yl)-3-(4-methylphenyl)prop-2-enamide] | 2.17 | 96.6 | 101.3 | 97.5 | 22.96±6.64% (500 µM) | 4.40±7.15% (500 µM) | – | – | – | – | – | – | – | – |
| O=C(/C=C/c1ccc(Cl)cc1)N1CCC(O)CC1 [Compound A-99, (2E)-3-(4-chlorophenyl)-1-(4-hydroxypiperidin-1-yl)prop-2-en-1-one] | 2.27 | 109.8 | 102.6 | 96.6 | – | 75.14±1.60% (500 µM) | – | – | – | 450 | 177 | – | – | 54.87±1.47 |

Reference: patent EP4324461A1, “(E)-N-CINAMOYLAMINOALKANOLES WITH MELANOGENESIS INHIBITORY ACTIVITY” (UNIWERSYTET JAGIELLONSKI, priority 2022, dated 2024)
